Legend:
BKV(Dunlop) [1] = assay: Intracellular BKV load per cell in RPTECs (qPCR); assay type: cell-based; conditions: CMX001 0.31 μM
Description: FIG. 3 illustrates the influence of CMX001 0.31 μM on BKV genome replication. For Figure, CMX001-treated and untreated BKV-infected RPTECs were harvested at indicated timepoints and intracellular BKV DNA load per cell was measured by qPCR.
To investigate whether the BKV genome replication was affected by CMX001, intracellular BKV load at 24-72 h p.i. by qPCR was measured. The intracellular BKV load was normalized to the cell number using the aspartoacylase (ACY) gene as described (See Bernhoff et al., 2008; Randhawa, et al., Quantitation of DNA of polyomaviruses BK and JC in human kidneys. J Infect Dis., 192, 504-509 (2005)). Compared to untreated RPTECs, CMX001 0.31 μM reduced the intracellular BKV load by 94% at 48 h and 63% at 72 h p.i. (FIG. 3). Then, a significant inhibitory effect of CMX001 on intracellular BKV genome replication, which is the second step of the BKV lifecycle may be identified. This step is known to require LTag expression which also increases viral late gene expression by two mechanisms: 1. increasing the DNA templates for late gene transcription and 2. by activating transcription from the late promoter (Cole, C. N., Polyomavirinae: The Viruses and Their Replication. In Fields Virology, Third edn, pp. 1997-2043. Edited by B. N. Fields, D. M. Knipe & P. H. Howley. New York: Lippincott-Raven (1996).)

COS-7 cells = assay: Metabolic activity of uninfected COS-7 cells (WST-1 assay); assay type: cell-based
Description: Metabolic activity was examined as WST-1 cleavage. Medium with indicated CMX001 concentrations was added to COS-7 cells and absorbance measured 72 h post seeding. Absorbance for untreated cells was set as 100%. The metabolic activity was monitored by the colorimetric WST-1 assay (Roche) of the mitochondrial dehydrogenases in viable cells. COS-7 cells were seeded in 96 well plates and CMX001 was added at indicated concentrations. The WST-1 cleavage product was measured at 450 nm (sample) and at 650 nm (background). WST-1 plus medium alone served as blank.

COS-7 = assay: Inspection of COS-7 by phase contrast microscopy; assay type: cell-based; conditions: 7 day exposure to CMX001 0.6 μM
EBV = assay: CMX001 in human patients with EBV-associated PTLD; assay type: in vivo; conditions: for EBV viral load: heart transplant recipient
From the text: The first patient is a patient with a history of sickle cell anemia developed EBV-associated intracranial post-transplant lymphoproliferative disorder (PTLD). EBV was positive in the plasma (7 Dec. and 14 Dec. 2010) and brain biopsies were consistent with PTLD. In early December, the patient presented with a 3 day history of persistent headache, nausea, vomiting, and diarrhea. […] The patient was admitted to PICU. High intracranial pressure, repetitive seizures associated with apnea led to intubation and emergency request for CMX001. The use of CMX001 in this patient with EBV-associated PTLD is ongoing since […].
The second patient was a heart transplant recipient with EBV-associated PTLD. The patient acquired a primary EBV infection post-operatively. […] The clinical condition continued to destabilize with what was presumed to be EBV-associated encephalitis with EBV detected in the CSF, clinical and EEG-correlated seizure activity and decreased responsiveness and changes in mental status. At the time of request for CMX001, the patient was on mechanical ventilation, had evidence of both pneumonia and PTLD of their lungs, evidence of seizure activity with clinical criteria for encephalopathy being present. The patient received their first dose of CMX001, 20 mg (approximately 3.3 mg/kg) on 3 Mar. 2010, and their second dose on 7 Mar. […] The patient continued to show evidence of progressive neurologic injury. The parents withdrew support on the day following their second dose of CMX001.

BKV(Dunlop) [2] = assay: BKV early and late protein expression in infected RPTECs (immunofluorescence, western blot); assay type: cell-based; conditions: for LTag staining reduced / decrease of VP1 by western blotting: CMX001 0.31 μM
Description: For FIG. 1(b), indirect immunofluorescence of untreated and CMX001 treated BKV-infected RPTECs, methanol fixed 72 h pd. and stained with rabbit anti-agnoprotein serum (green) for visualization of the late agnoprotein and with the SV40 LTag monoclonal Pab416 for visualization og BKV LTag (red). Cell density is shown by Drac 5 staining in blue.
For FIG. 4(a), indirect immunofluorescence of untreated and CMX001 treated BKV-infected RPTECs, methanol fixed 48 and 72 h p.i. and stained with rabbit anti-agnoprotein serum (green) for visualization of the late agnoprotein and with the SV40 LTag monoclonal Pab416 for visualization of BKV LTag (red). For FIG. 4(b), cell extracts from CMX001-treated and untreated BKV-infected RPTECs were harvested 48 and 72 h p.i. and western blot performed with rabbit anti-BKV VP1, anti-agnoprotein serum and a monoclonal antibody directed against the housekeeping protein GAPDH.
Primary human renal proximal tubule epithelial cells (RPTECs), BKV(Dunlop) and all methods as previously described by Bernhoff et al (See Bernhoff et al., Cidofovir inhibits polyomavirus BK replication in human renal tubular cells downstream of viral early gene expression, Am J Transplant 8, 1413-1422 (2008).) Only one exception, quantitative PCR (qPCR) to quantify intracellular or extracellular BKV DNA load was performed with a different primer/probe set also targeting the LTag gene (See Hirsch, et al., J. Prospective study of polyomavirus type BK replication and nephropathy in renal-transplant recipients, N Engl J. Med., 347, 488-496 (2002)). Before each experiment, CMX001 was freshly dissolved to 1 mg/ml in methanol/water/ammonium hydroxide (50/50/2). It was further diluted in RPTEC growth medium.
To investigate expression of LTag at the single-cell level, immunofluorescence staining at 48 and 72 h p.i was performed. At 48 h p.i. the number of BKV positive cells was almost the same in CMX001 and untreated wells. At 72 h p.i., the CMX001 treated cells seemed to express less LTag pro cell (FIG. 4a).

Structure (SMILES): CCCCCCCCCCCCCCCCOCCCOP(=O)(O)CO[C@H](CO)Cn1ccc(N)nc1=O [CMX001]
- reduction of intracellular BKV load (BKV(Dunlop) [1]; 48 h p.i.): 94%
- reduction of intracellular BKV load (BKV(Dunlop) [1]; 72 h p.i.): 63%
- loss of metabolic activity (COS-7 cells; CMX001 0.6 μM, COS-7): 17%
- IC50 (COS-7 cells; Chlorocebus aethiops, uninfected COS-7 cells): ~5 µM
- signs of impaired viability (COS-7): did not reveal any signs of impaired viability
- EBV viral load (EBV; 3 Mar. 2010 (day of first dose, 20 mg)): 267,338 copies/mL
- EBV viral load (EBV; 7 Mar. 2010 (day of second dose)): 47,427 copies/mL
- EBV in the plasma (EBV; patient on CMX001): remains negative
- tolerability (EBV; patient, 4 mg/kg twice weekly): tolerated CMX001 well
- clinical outcome (EBV; patient, intracranial PTLD, 4 mg/kg twice weekly): clinical improvement of their signs and symptoms of disease as well as stabilization if not reduction of their intracranial mass
- BKV-infected cells by immunofluorescence staining (BKV(Dunlop) [2]; 5 uM CMX001, 72 h p.i.): only few weakly LTag stained cells but no agnoprotein expressing cells were observed
- BKV-infected cells by immunofluorescence staining (BKV(Dunlop) [2]; 10 uM CMX001, 72 h p.i.): no BKV-infected cell was observed
- LTag staining reduced (BKV(Dunlop) [2]; 48 h p.i.): 33%
- decrease of VP1 by western blotting (BKV(Dunlop) [2]; 48 h p.i.): 86%
- LTag staining reduced (BKV(Dunlop) [2]; 72 h p.i.): 30%
- decrease of VP1 by western blotting (BKV(Dunlop) [2]; 72 h p.i.): 63%
- decrease in BKV agnoprotein expressing cells (BKV(Dunlop) [2]; CMX001 0.31 uM, immunofluorescence 72 h p.i.): approximately 60%

Reference: patent publication US20120164104A1, “Composition and Methods of Treating Viral Infections and Viral Induced Tumors” (Chimerix, Inc., priority 2009, published 2012)
